Laboratory results published in article PMC10399917 (Journal of Molecular Cell Biology, 2023).

Target: His-SPIKE-S2 (Severe acute respiratory syndrome coronavirus 2, UniProt P0DTC2)
Type: binding, SARS-CoV-2
Conditions: 25 µM

| SMILES | Thermal shift of His-SPIKE-S2 compared to DMSO control |
| --- | --- |
| N#C/C(=C/c1ccc(O)c(O)c1)C(=O)NCc1ccccc1 [AG-490] | did not show a change in the thermal shift curve |
| O=C(/C=C/c1ccc(O)c(O)c1)OCCc1ccccc1 [CAPE, caffeic acid phenethyl ester] | did not show a change in the thermal shift curve |
| CC(C)c1onc(-c2c(Cl)cccc2Cl)c1COc1ccc(/C=C/c2cccc(C(=O)O)c2)c(Cl)c1 [GW4064] | interfered with the assay |
| Cc1cc2c(C(C)C)c(O)c(O)c(C=O)c2c(O)c1-c1c(C)cc2c(C(C)C)c(O)c(O)c(C=O)c2c1O [gossypol acetate] | showed thermal shift |
